# According to patent publication US11377425B1, “Small molecule modulators of IL-17” (LEO Pharma A/S, priority 2018, dated 2022):
# Molecular target: T1, human IL-17AA (Homo sapiens, UniProt Q16552)
# T1 construct: host or cells: HEK (human embryonic kidney) cells
# T1 sequence (Q16552 24-155): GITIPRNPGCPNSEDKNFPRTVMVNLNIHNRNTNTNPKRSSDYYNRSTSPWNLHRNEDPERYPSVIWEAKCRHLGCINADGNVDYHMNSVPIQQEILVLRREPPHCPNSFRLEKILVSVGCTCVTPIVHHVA
# Assay: IL-8 release assay in human epithelial keratinocytes adult (HEKa)
# Type: cell-based
# Settings: HEKa cells, 3 ng/mL HEK-human IL-17AA + 10 ng/mL human TNFalpha; read-out: Rel EC50 IL-8 release assay
# Summary of the method: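 Adult human epidermal keratinocytes stimulated 68-72 h at 37 °C with 3 ng/mL HEK-derived human IL-17AA plus 10 ng/mL TNF-alpha (final) in the presence of compound; TNF-alpha alone defines 100% inhibition. Secreted IL-8 measured by HTRF as percent of controls; relative IC50/Emax from four-parameter fit (r^2>0.9), cytotoxicity by PrestoBlue.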
row,EC50 [µM],SMILES
1,0.1 to 1,"Cn1cncc1-c1ccc(NC(=O)C(NC(=O)c2ccnn2C)C(c2cccc(Cl)c2)c2cccc(Cl)c2)cc1 (single isomer, unassigned) [Example 373A, N-(1,1-Bis(3-chlorophenyl)-3-((4-(1-methyl-1H-imidazol-5-yl)phenyl)amino)-3-oxopropan-2-yl)-1-methyl-1H-pyrazole-5-carboxamide]"
2,> 1,"Cn1cncc1-c1ccc(NC(=O)C(NC(=O)c2ccnn2C)C(c2cccc(Cl)c2)c2cccc(Cl)c2)cc1 (single isomer, unassigned) [Example 373B, N-(1,1-Bis(3-chlorophenyl)-3-((4-(1-methyl-1H-imidazol-5-yl)phenyl)amino)-3-oxopropan-2-yl)-1-methyl-1H-pyrazole-5-carboxamide]"
3,> 1,"Cn1cncc1-c1ccc(NC(=O)C(NC(=O)c2ccnn2C)C(c2cccc(F)c2)c2cccc(F)c2)cc1 (single isomer, unassigned) [Example 374A, N-(1,1-Bis(3-Fluorophenyl)-3-((4-(1-methyl-1H-imidazol-5-yl)phenyl)amino)-3-oxopropan-2-yl)-1-methyl-1H-pyrazole-5-carboxamide]"
4,> 1,"Cn1cncc1-c1ccc(NC(=O)C(NC(=O)c2ccnn2C)C(c2cccc(F)c2)c2cccc(F)c2)cc1 (single isomer, unassigned) [Example 374B, N-(1,1-Bis(3-Fluorophenyl)-3-((4-(1-methyl-1H-imidazol-5-yl)phenyl)amino)-3-oxopropan-2-yl)-1-methyl-1H-pyrazole-5-carboxamide]"
5,0.1 to 1,"CC(C)n1nccc1C(=O)NC(C(=O)Nc1ccc(-c2c(C3CC3)n[nH]c2C2CC2)cc1)C(C1CC1)C1CC1 (single isomer, unassigned) [Example 384, N-[1-(dicyclopropylmethyl)-2-[4-(3,5-dicyclopropyl-1H-pyrazol-4-yl)anilino]-2-oxo-ethyl]-2-isopropyl-pyrazole-3-carboxamide]"
6,< 0.1,"CC(C)n1nccc1C(=O)NC(C(=O)Nc1ccc(-c2c(C3CC3)n[nH]c2C2CC2)cc1)C(C1CC1)C1CC1 (single isomer, unassigned) [Example 385, N-[1-(dicyclopropylmethyl)-2-[4-(3,5-dicyclopropyl-1H-pyrazol-4-yl)anilino]-2-oxo-ethyl]-2-isopropyl-pyrazole-3-carboxamide]"
7,0.1 to 1,"Cc1n[nH]c(C)c1-c1ccc(NC(=O)[C@@H](NC(=O)N2CCCCC2CCCO)C2CCCCC2)cc1 (single isomer, unassigned) [Example 460]"
8,> 1,"Cc1n[nH]c(C)c1-c1ccc(NC(=O)[C@@H](NC(=O)N2CCCCC2CCCO)C2CCCCC2)cc1 (single isomer, unassigned) [Example 461]"
9,> 1,"Cc1n[nH]c(C)c1-c1ccc(NC(=O)[C@@H](NC(=O)N2CCCC2C(C)(C)O)C2CCCCC2)cc1 (single isomer, unassigned) [Example 464]"
10,> 1,"Cc1n[nH]c(C)c1-c1ccc(NC(=O)[C@@H](NC(=O)N2CCCC2C(C)(C)O)C2CCCCC2)cc1 (single isomer, unassigned) [Example 465]"
11,> 1,"Cc1n[nH]c(C)c1-c1ccc(NC(=O)[C@@H](NC(=O)N2CCCC2CCO)C2CCCCC2)cc1 (single isomer, unassigned) [Example 466]"
12,> 1,"Cc1n[nH]c(C)c1-c1ccc(NC(=O)[C@@H](NC(=O)N2CCCC2CCO)C2CCCCC2)cc1 (single isomer, unassigned) [Example 467]"
13,> 1,"Cc1n[nH]c(C)c1-c1ccc(NC(=O)[C@@H](NC(=O)N2CCCCC2CCO)C2CCCCC2)cc1 (single isomer, unassigned) [Example 470]"
14,> 1,"Cc1n[nH]c(C)c1-c1ccc(NC(=O)[C@@H](NC(=O)N2CCCCC2CCO)C2CCCCC2)cc1 (single isomer, unassigned) [Example 471]"
15,> 1,"Cc1n[nH]c(C)c1-c1ccc(NC(=O)[C@@H](NC(=O)N2CCCC2CO)C2CCCCC2)cc1 (single isomer, unassigned) [Example 473]"
16,> 1,"Cc1n[nH]c(C)c1-c1ccc(NC(=O)[C@@H](NC(=O)N2CCCC2CO)C2CCCCC2)cc1 (single isomer, unassigned) [Example 474]"
17,0.1 to 1,"Cc1n[nH]c(C)c1-c1ccc(NC(=O)[C@@H](NC(=O)c2ccnn2C)C2CCCCC2)cc1 [Example 1, N-[(1S)-1-cyclohexyl-2-[4-(3,5-dimethyl-1H-pyrazol-4-yl)anilino]-2-oxo-ethyl]-2-methyl-pyrazole-3-carboxamide]"

row,EC50 [µM],SMILES
1,0.1 to 1,"Cc1n[nH]c(C)c1-c1ccc(NC(=O)[C@@H](NC(=O)c2ccnn2C)C(c2ccccc2)c2ccccc2)cc1 [Example 2, N-[(1S)-1-benzhydryl-2-[4-(3,5-dimethyl-1H-pyrazol-4-yl)anilino]-2-oxo-ethyl]-2-methyl-pyrazole-3-carboxamide]"
2,< 0.1,"Cc1n[nH]c(C)c1-c1ccc(NC(=O)[C@@H](NC(=O)c2ccnn2C)C2CCCCCC2)cc1 [Example 3, N-[(1S)-1-cycloheptyl-2-[4-(3,5-dimethyl-1H-pyrazol-4-yl)anilino]-2-oxo-ethyl]-2-methyl-pyrazole-3-carboxamide]"
3,0.1 to 1,"Cc1n[nH]c(C)c1-c1ccc(NC(=O)[C@@H](NC(=O)c2ccnn2C)[C@@H]2CCc3ccc(Br)cc32)cc1 [Example 4, N-[(1S)-1-[(1R)-6-bromoindan-1-yl]-2[4-(3,5-dimethyl-1H-pyrazol-4-yl)anilino]-2-oxo-ethyl]-2-methyl-pyrazole-3-carboxamide]"
4,< 0.1,"Cc1n[nH]c(C)c1-c1ccc(NC(=O)[C@@H](NC(=O)c2ccnn2C)[C@H]2CCc3ccc(Br)cc32)cc1 [Example 5, N-[(1S)-1-[(1S)-6-bromoindan-1-yl]-2[4-(3,5-dimethyl-1H-pyrazol-4-yl)anilino]-2-oxo-ethyl]-2-methyl-pyrazole-3-carboxamide]"
5,< 0.1,"Cc1n[nH]c(C)c1-c1ccc(NC(=O)[C@@H](NC(=O)c2ccnn2C)[C@H]2CCCc3ccc(Br)cc32)cc1 [Example 6, N-[(1S)-1-[(1S)-7-bromotetralin-1-yl]-2-[4 (3,5-dimethyl-1H-pyrazol-4-yl)anilino]-2-oxo-ethyl]-2-methyl-pyrazole-3-carboxamide]"
6,0.1 to 1,"Cc1n[nH]c(C)c1-c1ccc(NC(=O)[C@@H](NC(=O)c2ccnn2C)[C@H]2CCCCC(F)(F)C2)cc1 [Example 7, N-[(1S)-1-[(1S)-3,3-difluorocycloheptyl]-2-[4-(3,5-dimethyl-1H-pyrazol-4-yl)anilino]-2-oxo-ethyl]-2-methyl-pyrazole-3-carboxamide]"
7,> 1,"Cc1n[nH]c(C)c1-c1ccc(NC(=O)[C@@H](NC(=O)c2ccnn2C(C)(C)C)C2CCCCC2)cc1 [Example 8, 2-tert-butyl-N-[(1S)-1-cyclohexyl-2-[4-(3,5-dimethyl-1H-pyrazol-4-yl)anilino]-2-oxo-ethyl]pyrazole-3-carboxamide]"
8,< 0.1,"CCn1nccc1C(=O)N[C@H](C(=O)Nc1ccc(-c2c(C)n[nH]c2C)cc1)C1CCCCC1 [Example 9, N-[(1S)-1-cyclohexyl-2-[4-(3,5-dimethyl-1H-pyrazol-4-yl)anilino]-2-oxo-ethyl]-2-ethyl-pyrazole-3-carboxamide]"
9,< 0.1,"Cc1n[nH]c(C)c1-c1ccc(NC(=O)[C@@H](NC(=O)c2ccnn2C(C)C)C2CCCCC2)cc1 [Example 10, N-[(1S)-1-cyclohexyl-2-[4-(3,5-dimethyl-1H-pyrazol-4-yl)anilino]-2-oxo-ethyl]-2-isopropyl-pyrazole-3-carboxamide]"
10,0.1 to 1,"Cc1n[nH]c(C)c1-c1ccc(NC(=O)[C@@H](NC(=O)c2ccnn2C)C2CCC(F)(F)CC2)cc1 [Example 11, N-[(1S)-1-(4,4-difluorocyclohexyl)-2-[4-(3,5-dimethyl-1H-pyrazol-4-yl)anilino]-2-oxo-ethyl]-2-methyl-pyrazole-3-carboxamide]"
11,< 0.1,"Cc1n[nH]c(C)c1-c1ccc(NC(=O)[C@@H](NC(=O)c2ccnn2C(C)C)C2CCC(F)(F)CC2)cc1 [Example 12, N-[(1S)-1-(4,4-difluorocyclohexyl)-2-[4-(3,5-dimethyl-1H-pyrazol-4-yl)anilino]-2-oxo-ethyl]-2-isopropyl-pyrazole-3-carboxamide]"
12,< 0.1,"Cc1n[nH]c(C)c1-c1ccc(NC(=O)[C@@H](NC(=O)c2ccnn2C)C(C2CCC2)C2CCC2)cc1 [Example 13, N-[(1S)-1-[di(cyclobutyl)methyl]-2-[4-(3,5-dimethyl-1H-pyrazol-4-yl)anilino]-2-oxo-ethyl]-2-methyl-pyrazole-3-carboxamide]"
13,0.1 to 1,"Cc1n[nH]c(C)c1-c1ccc(NC(=O)[C@H](CC2CCCCC2)NC(=O)c2ccnn2C)cc1 [Example 15, N-[(1S)-1-(cyclohexylmethyl)-2-[4-(3,5-dimethyl-1H-pyrazol-4-yl)anilino]-2-oxo-ethyl] 2-methyl-pyrazole-3-carboxamide]"
14,0.1 to 1,"CCn1nccc1C(=O)N[C@@H](CC1CCCCC1)C(=O)Nc1ccc(-c2c(C)n[nH]c2C)cc1 [Example 16, N-[(1S)-1-(cyclohexylmethyl)-2-[4-(3,5-dimethyl-1H-pyrazol-4-yl)anilino]-2-oxo-ethyl]-2-ethyl-pyrazole-3-carboxamide]"
15,0.1 to 1,"Cc1n[nH]c(C)c1-c1ccc(NC(=O)[C@H](CC2CCCCC2)NC(=O)c2ccnn2C(C)C)cc1 [Example 17, N-[(1S)-1-(cyclohexylmethyl)-2-[4-(3,5-dimethyl-1H-pyrazol-4-yl)anilino]-2-oxo-ethyl]-2-isopropyl-pyrazole-3-carboxamide]"
16,0.1 to 1,"CCn1nccc1C(=O)N[C@H](C(=O)Nc1ccc(-c2c(C)n[nH]c2C)cc1)C1CCC(F)(F)CC1 [Example 18, N-[(1S)-1-(4,4-difluorocyclohexyl)-2-[4-(3,5-dimethyl-1H-pyrazol-4-yl)anilino]-2-oxo-ethyl]-2-ethyl-pyrazole-3-carboxamide]"
